The results in this text go back to patent US20050031537A1, “Multifunctional COX-2 inhibitors” (priority 2002, published 2005).

Assay [1] concerns HPV16 oncoproteins E6 and E7. Kind of assay: Western and Northern blotting for HPV16 oncoproteins E6 and E7 (test (d)). Type of assay: cell-based, human papillomavirus. The conditions noted are these: positive in CaSki and SiHa cells. The procedure:
We turn now to the criterion (d), that is at least 50% downregulation of expression of HPV16 oncoproteins E6 and E7.
Protein E6 and E7 which are expressed by HPV16 are believed to play a major role in carcinogenesis.
Western blotting and Northern blotting techniques were used to evaluate the expression of HPV E6 and E7 proteins. The cell lines used for the study were CaSKi and SiHa. The cells were treated with the test compound and cell lysate was obtained as described above and subjected to Western blotting analysis. The Western blotting analysis was performed as described above except anti-HPV 16 E7 antibody was used to probe the blot. The antibody was obtained from Santa Cruz Biotechnology, Inc. CA. For Northern blotting, total cellular RNA was isolated from cell monolayers using an RNA isolation kit from QIAGEN Inc. after treatment with the test compound. 10 μg of total cellular RNA per lane were electrophoresed in a formaldehyde-containing 1.2% agarose gel and transferred to nylon-supported membranes. After baking, membranes were prehybridized overnight in a solution containing 50% formamide, 5×sodium chloride-sodium phosphate-EDTA buffer (SSPE), 5×Denhardt's solution, 0.1% SDS and 100 μg/ml single-stranded salmon sperm DNA and then hybridized for 12 h at 42° C. with radiolabeled cDNA probes for human HPV16 E6 or E7 cDNAs and 18S rRNA. E6 and E7 (as described in Woodworth, C. D., Cancer Res. 16, 4397-4402 (2000)) and 18S rRNA probes were labeled with [^32P]-CTP by random priming. After hybridization, membranes were washed twice for 20 min at room temperature in 2×SSPE-0.1% SDS, twice for 20 min in the same solution at 55° C., and twice for 20 min in 0.1×SSPE-0.1% SDS at 55° C. Washed membranes were then subjected to autoradiography.

The subject of another assay is PTEN. Put plainly: Western and Northern blotting for expression of PTEN (test (e)). Type of assay: cell-based, human. The conditions noted are these: positive in 184B5, 184B5/HER, HCA7, HCT116, SKBR3 and BT474 cells. The procedure: We turn now to criterion (e), i.e., at least 50% increase in expression of PTEN.
PTEN is a tumor suppressor that inhibits cell proliferation and induces programmed cell death. PTEN (also know as MMAC-1 or TEP-1) is described in Yamada, K. M., et al, Journal of Cell Science 114, 2375-2382, the whole of which is incorporated herein by reference.
Western blotting and Northern blotting techniques were used to evaluate the expression of PTEN. The expression of PTEN was evaluated in HCA7, HCT116, SKBR3, 184B5/HER, 184B5 and BT474 cells. 5×10^6cells were used to treat either vehicle alone or the test compound. The Western blotting analysis was performed as described above except anti-PTEN antibody was used to probe the blot. The antibody was obtained from Santa Cruz Biotechnology, Inc. CA. Northern blotting for PTEN was performed as described above and cDNA for PTEN as described in Tamura, M., et al, Science 5; 280 (5369):1614-1617 (1998), was used as a probe.

For the next assay, the system named is PPRE luciferase. Kind of assay: PPRE luciferase activation, transient transfection reporter assay (test (a)). The conditions noted are these: positive in 184B5, 184B5/HER, HCA7, HCT116, SKBR3 and BT474 cells; 24 h treatment. Type of assay: cell-based, human. From the text: We turn now to criterion (a), that is activation of PPRE luciferase by at least 100%. PPRE-luciferase refers to a DNA construct containing the peroxisome proliferator activated receptor (PPAR) binding element joined to luciferase. Cells are transfected with PPRE-luciferase DNA. Ligands of PPAR induce luciferase activity. The ability of a test compound to stimulate PPRE-luciferase signifies that the test compound activates PPAR-mediated gene transcription. PPRE means peroxisome proliferator response element and the method by which PPRE-luciferase is constructed is described in Schoonjans, K., et al, J. Biol. Chem. 270, No. 33, 19269-19276 (Aug. 18, 1995). Use of PPRE-luciferase in a transient transfection to measure increase in promoter activity is disclosed in Subbaramaiah, K. et al, J. Biol. Chem. 270, No. 15, 12440-12448 (Apr. 13, […]).
For each well, 1.8 μg of PPRE3-tk-luciferase construct plasmid DNA (described in Forman, B. M., et al, Cell 83, 803 (1995)) plus 0.2 μg of pSV-β-galactosidase were introduced into cells using 8 μg of LipofectAMINE as per the manufacturer's instructions (Invitrogen, CA). After 7 h of incubation, the medium was replaced with basal medium. After transfection, cells were treated with test compound for 24 h. Reporter activities which include luciferase and β-galactosidase were measured in cellular extract 24 h later. Six wells were used for each of the conditions. Luciferase activity represents data that have been normalized with β-galactosidase.
The luciferase assay was performed as per the BD Pharmingen assay reagents. The Enhanced Luciferase Assay Kit provides a firefly luciferase substrate formulation (Substrates A and B) and cell lysis buffer intended for use in measuring luciferase expressed by transfected cells. Media from cell culture plates was removed and rinsed twice with phosphate buffered saline. Enough 1X cell lysis buffer was added to cover cells and incubated at room temperature for 15-20 min. Cells were dislodged by scraping and transferred to microcentrifuge tubes. […] 20-100 μl cell extract was placed into an assay cuvette. One automatic injector type luminometer is used for assay. Manually 100 μl of Substrate A was added to the assay cuvette and automatically 100 μl of Substrate B was injected. Measurements were performed using a luminometer, for a measurement time of 10 seconds.
The β-galactosidase assay was performed as follows:
50 μl of cell lysate from above was incubated with 50 μl of o-nitrophenyl-β-D-galactoside (ONPG; 4 mg/mL) in Z buffer, (Na2HPO4.7H2O (0.06M), NaH2PO4.H2O (0.04M), 1M KCl (0.01M), 1M MgSO4 (0.001M), β-mercaptoethanol (BME) (0.05M) pH 7.0). The reaction was stopped after sufficient yellow color has developed. The yellow color developed is measured at A420 […].
A general note: In a reporter assay the amount or activity of a reporter protein is the signal.

In assay [2] the test system is tcf/lef/β-catenin-mediated promoter activation. Kind of assay: TOPflash/FOPflash reporter assay for tcf/lef/β-catenin-mediated promoter activation (test (f)). Type of assay: cell-based, human. The settings on record: positive in 184B5, 184B5/HER, HCA7, HCT116, SKBR3 and BT474 cells; 24 h. The text has this: Tcf/lef/β-catenin is a transcription factor complex that has been implicated in the regulation of genes involved in carcinogenesis. Increased tcf/lef/β-catenin-mediated gene expression has been linked to pathogenesis of colon cancer. Tcf/lef/β-catenin is described in Barker, N., et al, Adv. Cancer Res. 77, 1-24 (2000), the whole of which is incorporated herein by reference.
Cells (cell lines were 184B5, 184B5/HER, HCA7, HCT116, SKBR3 and BT474) were split into 6 well dishes and the next day were transiently transfected using 8 μg of LipofectAMlNE as per the manufacturer's instructions (Invitrogen, CA). 1.8 μg/dish of the wildtype Tcf/Lef reporter plasmid TOP flash or the mutant plasmid FOP flash was transfected into the cells and 0.2 μg of pSV-β-galactosidase. FOPflash differs from TOPflash by the mutation of its Tcf binding sites and serves to differentiate Tef/-catenin-mediated signaling from background (Upstate Biotechnology, Inc.). Cells were incubated overnight and were treated for 24 hours with either vehicle or test compound. Luciferase activity in the extracts was measured as described above and was corrected for background by subtraction of FOP-FLASH values from corresponding TOP-FLASH values.

Structures are written as SMILES.

For `COc1ccc2c(c1)c(CC(=O)Nc1cccnc1)c(C)n2C(=O)c1ccc(Cl)cc1` [Indomethacin Analog 4, N-(3-pyridyl)-indomethacin amide], the “Test (d) at least 50% downregulation of expression of HPV16 oncoproteins E6 and E7” value in assay [1] was “+ (A plus sign in the table indicates a positive result, that is meeting the test for each cell line as indicated above as providing a positive result)”. For the same compound, the “Test (e) at least 50% increase in expression of PTEN” value with PTEN is recorded as “+ (A plus sign in the table indicates a positive result, that is meeting the test for each cell line as indicated above as providing a positive result)”. The “Test (a) activation of PPRE luciferase by at least 100%” value in the assay on PPRE luciferase is reported as “+ (A plus sign in the table indicates a positive result, that is meeting the test for each cell line as indicated above as providing a positive result)”. Besides, the “Test (f) at least 50% inhibition of tcf/lef/β-catenin-mediated promoter activation” value in assay [2] is reported as “+ (A plus sign in the table indicates a positive result, that is meeting the test for each cell line as indicated above as providing a positive result)”.
